Measured values from patent US11634451B2, “Method for the site-specific enzymatic labelling of nucleic acids in vitro by incorporation of unnatural nucleotides” (The Scripps Research Institute, priority 2013, dated 2023).
Marks after values point to notes of the source that are not given here.

Columns and labels:
OneTaq polymerase = assay: PCR-based screen and amplification of DNA containing unnatural base pairs, OneTaq (Example 1); type: biochemical; conditions: for Amplification: -^a = no amplification was detected
Description: (§1) The triphosphates of the 6 group were prepared from the previously reported nucleosides (Kubelka, T., Slavetinska, L., Eigner, V. and Hocek, M. Synthesis of 2,6-disubstituted pyridin-3-yl C-2′-deoxyribonucleosides through chemoselective transformations of bromo-chloropyridine C-nucleosides. Org. Biomol. Chem., 11, 4702-4718) according to Ludwig, J. and Eckstein, F. Rapid and efficient synthesis of nucleoside 5′-0-(1-thiotriphosphates), 5′-triphosphates and 2′,3′-cyclophosphorothioates using 2-chloro-4H-1,3,2-benzodioxaphosphorin-4-one. J. Org. Chem., 54, 631-635. The purity of all other triphosphates was confirmed by MALDI-TOF and UV-VIS. Taq and OneTaq DNA polymerases were purchased from New England Biolabs (Ipswich, Mass.). A mixture of dNTPs was purchased from Fermentas (Glen Burnie, Md.). SYBR Green I Nucleic Acid Gel Stain (10,000×) was purchased from Life Technologies (Carlsbad, Calif.). The synthesis of the DNA templates, D8 (Malyshev, D. A., Dhami, K., Quach, H. T., Lavergne, T., Ordoukhanian, P., Torkamani, A. and Romesberg, F. E. Efficient and sequence-independent replication of DNA containing a third base pair establishes a functional six-letter genetic alphabet. Proc. Natl. Acad. Sci. USA, 109, 12005-12010), used for screening rounds 1-5, and D6 (Malyshev, D. A., Seo, Y. J., Ordoukhanian, P. and Romesberg, F. E. PCR with an expanded genetic alphabet. J. Am. Chem. Soc., 131, 14620-14621), used for all other amplifications, was described previously. Sanger sequencing was carried out as described previously (Malyshev, D. A., Dhami, K., Quach, H. T., Lavergne, T., Ordoukhanian, P., Torkamani, A. and Romesberg, F. E. Efficient and sequence-independent replication of DNA containing a third base pair establishes a functional six-letter genetic alphabet. Proc. Natl. Acad. Sci. USA, 109, 12005-12010). Raw Sanger sequencing traces were used to determine the percent retention of the unnatural base pairs, which was converted to fidelity per doubling, as described (Malyshev, D. A., Dhami, K., Quach, H. T., Lavergne, T., Ordoukhanian, P., Torkamani, A. and Romesberg, F. E. Efficient and sequence-independent replication of DNA containing a third base pair establishes a functional six-letter genetic alphabet. Proc. Natl. Acad. Sci. USA, 109, 12005-12010; Malyshev, D. A., Seo, Y. J., Ordoukhanian, P. and Romesberg, F. E. PCR with an expanded genetic alphabet. J. Am. Chem. Soc., 131, 14620-14621).
(§2) All PCR amplifications were performed in a CFX Connect Real-Time PCR Detection System (Bio-Rad), in a total volume of 25 μL using the following conditions: 1× OneTaq reaction buffer, 0.5× Sybr Green I, MgSO4 adjusted to 4.0 mM, 0.2 mM of each dNTP, 50 μM of each unnatural triphosphate, […] of Primer1 and Primer2 (See Table 2), and 0.02 U/μl of the DNA polymerase. Other conditions specific for each round of screening are described in Table 3. Amplified products were purified using DNA Clean and Concentrator-5 spin columns from Zymo Research (Irvine, Calif.). After purification, the PCR products were sequenced on a 3730 DNA Analyzer (Applied Biosystems) to determine the retention of the unnatural base pair as described below. Fidelity was characterized from unnatural base pair (UBP) retention as determined by sequencing with Primer1 on a 3730 DNA Analyzer (Applied Biosystems).
(§3) Specific PCR assay conditions. PCR with the most promising UBPs was carried out with the conditions as described in Table 3. PCR products were further purified on […] gels, followed by single band excision and subsequent clean up using the Zymo Research Zymoclean Gel DNA Recovery Kit. After elution with 20 μl of water, the DNA concentration was measured using fluorescent dye binding (Quant-iT dsDNA HS Assay kit, Life Technologies), and purified amplicons were sequenced in triplicate with both Primer1 and Primer2 to determine UBP retention and thus amplification fidelity. […]

Taq polymerase = target: T1, Taq polymerase (Thermus aquaticus, UniProt P19821); assay: PCR-based screen and amplification of DNA containing unnatural base pairs, Taq (Example 1); type: biochemical
T1 construct: purchased New England Biolabs (Ipswich, Mass.)
T1 sequence (P19821 whole entry): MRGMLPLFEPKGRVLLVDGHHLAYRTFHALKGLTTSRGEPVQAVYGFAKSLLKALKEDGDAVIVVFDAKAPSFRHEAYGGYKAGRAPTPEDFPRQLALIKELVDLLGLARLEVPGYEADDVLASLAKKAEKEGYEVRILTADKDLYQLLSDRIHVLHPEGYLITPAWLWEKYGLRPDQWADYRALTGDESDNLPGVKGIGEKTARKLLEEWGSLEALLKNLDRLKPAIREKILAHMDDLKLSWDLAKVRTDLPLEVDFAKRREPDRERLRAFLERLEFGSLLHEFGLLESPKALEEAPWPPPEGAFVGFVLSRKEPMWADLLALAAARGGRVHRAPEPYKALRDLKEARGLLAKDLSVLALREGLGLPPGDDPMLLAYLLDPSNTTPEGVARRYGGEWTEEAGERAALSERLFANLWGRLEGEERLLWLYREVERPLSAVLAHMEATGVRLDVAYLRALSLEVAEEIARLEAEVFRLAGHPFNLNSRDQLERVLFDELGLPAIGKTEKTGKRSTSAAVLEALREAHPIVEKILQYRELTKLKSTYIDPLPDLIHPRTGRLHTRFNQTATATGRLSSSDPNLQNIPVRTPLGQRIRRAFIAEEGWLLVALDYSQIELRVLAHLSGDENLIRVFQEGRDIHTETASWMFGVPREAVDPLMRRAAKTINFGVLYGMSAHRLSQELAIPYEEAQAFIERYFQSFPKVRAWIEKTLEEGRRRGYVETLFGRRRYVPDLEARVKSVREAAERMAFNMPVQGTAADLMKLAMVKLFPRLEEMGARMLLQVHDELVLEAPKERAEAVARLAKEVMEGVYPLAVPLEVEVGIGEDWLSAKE
Description: as §1, §2, §3

[1] = OneTaq, 1 min Extension, 52 cycles, D6 template
[2] = Taq, 10 s Extension, 52 cycles, D6 template
[3] = ^b 10 pg D6 template, 24 cycles, OneTaq polymerase, 68° C. for 10 s
[4] = OneTaq, 16 cycles, 1 min extension
[5] = ^a 100 pg D8 template, 16 cycles, Taq polymerase, 68° C. for 60 s

## C#Cc1cc(OC)c([C@H]2C[C@H](O)[C@@H](COP(=O)(O)OP(=O)(O)OP(=O)(O)O)O2)cc1F.O=P(O)(O)OP(=O)(O)OP(=O)(O)OC[C@H]1O[C@@H](n2ccc3ccsc3c2=S)C[C@@H]1O [TPT3-FEMO]
OneTaq polymerase; [1]
  Amplification, ×10^12: 10.4 ×10^12
  Fidelity per Doubling, %: 99.55 ± 0.03%
  Retention, %: 82.2 ± 1.0%
Taq polymerase; [2]
  Amplification, ×10^12: 5.0 ×10^12
  Fidelity per Doubling, %: 99.44 ± 0.09%
  Retention, %: 79 ± 3%

## COc1cc(I)ccc1[C@H]1C[C@H](O)[C@@H](COP(=O)(O)OP(=O)(O)OP(=O)(O)O)O1.O=P(O)(O)OP(=O)(O)OP(=O)(O)OC[C@H]1O[C@@H](n2ccc3ncccc3c2=S)C[C@@H]1O [SNICS-IMO]
OneTaq polymerase; [3]
  Retention, %: 88^b %

## COc1cc(N=[N+]=[N-])ccc1[C@H]1C[C@H](O)[C@@H](COP(=O)(O)OP(=O)(O)OP(=O)(O)O)O1.O=P(O)(O)OP(=O)(O)OP(=O)(O)OC[C@H]1O[C@@H](n2ccc3ccsc3c2=S)C[C@@H]1O [TPT3-ZMO]
OneTaq polymerase; [3]
  Retention, %: 86^b %

## C#Cc1cc(OC)c([C@H]2C[C@H](O)[C@@H](COP(=O)(O)OP(=O)(O)OP(=O)(O)O)O2)cc1F.O=P(O)(O)OP(=O)(O)OP(=O)(O)OC[C@H]1O[C@@H](n2cc(F)c3ccsc3c2=S)C[C@@H]1O [FTPT3-FEMO]
OneTaq polymerase; [1]
  Amplification, ×10^12: 6.3 ×10^12
  Fidelity per Doubling, %: 99.24 ± 0.04%
  Retention, %: 72.4 ± 1.4%
Taq polymerase; [2]
  Amplification, ×10^12: 5.7 ×10^12
  Fidelity per Doubling, %: 99.51 ± 0.11%
  Retention, %: 81 ± 4%

## COc1ccc([C@H]2C[C@H](O)[C@@H](COP(=O)(O)OP(=O)(O)OP(=O)(O)O)O2)c(OC)c1.O=P(O)(O)OP(=O)(O)OP(=O)(O)OC[C@H]1O[C@@H](n2ccc3ccsc3c2=S)C[C@@H]1O [TPT3-DMO]
OneTaq polymerase; [4]
  Fidelity, %: 98.23 ± 0.23%
  Retention, %: 84.02 ± 1.92%
  Amplification: 864

## COc1cc(Cl)ccc1[C@H]1C[C@H](O)[C@@H](COP(=O)(O)OP(=O)(O)OP(=O)(O)O)O1.O=P(O)(O)OP(=O)(O)OP(=O)(O)OC[C@H]1O[C@@H](n2ccc3ccsc3c2=S)C[C@@H]1O [TPT3-CIMO]
OneTaq polymerase; [3]
  Retention, %: 90^b %

## C#Cc1cc(OC)c([C@H]2C[C@H](O)[C@@H](COP(=O)(O)OP(=O)(O)OP(=O)(O)O)O2)cc1F.O=P(O)(O)OP(=O)(O)OP(=O)(O)OC[C@H]1O[C@@H](n2ccc3ccccc3c2=S)C[C@@H]1O [SICS-FEMO]
OneTaq polymerase; [3]
  Retention, %: 92^b %

## Cc1ccc([C@H]2C[C@H](O)[C@@H](COP(=O)(O)OP(=O)(O)OP(=O)(O)O)O2)c(Cl)n1.O=P(O)(O)OP(=O)(O)OP(=O)(O)OC[C@H]1O[C@@H](n2ccc3ccsc3c2=S)C[C@@H]1O [TPT3-TOK580]
OneTaq polymerase; [4]
  Fidelity, %: <85 ^b %
  Retention, %: <50 ^b %
  Amplification: 1056
OneTaq polymerase; OneTaq, 16 cycles, 1 min extension, listed as dTPT3-dTOK580
  Retention, %: poorly replicated

## COc1cc(N=[N+]=[N-])ccc1[C@H]1C[C@H](O)[C@@H](COP(=O)(O)OP(=O)(O)OP(=O)(O)O)O1.O=P(O)(O)OP(=O)(O)OP(=O)(O)OC[C@H]1O[C@@H](n2cc(F)c3ccsc3c2=S)C[C@@H]1O [FTPT3-ZMO]
Taq polymerase; [5]
  Retention, %: 88^a %

## COc1cc2ccccc2cc1[C@H]1C[C@H](O)[C@@H](COP(=O)(O)OP(=O)(O)OP(=O)(O)O)O1.O=P(O)(O)OP(=O)(O)OP(=O)(O)OC[C@H]1O[C@@H](n2ccc3ncccc3c2=S)C[C@@H]1O [SNICS-NaM]
Taq polymerase; [5]
  Retention, %: 90^a %
